US20210371351A1, “MIXTURES COMPRISING AT LEAST TWO DIFFERENT NITRIFICATION INHIBITORS SELECTED FROM 2-(3,4-DIMETHYL-1H-PYRAZOL-1-YL)SUCCINIC ACID (DMPSA), 3,4-DIMETHYL PYRAZOLIUM GLYCOLATE (DMPG) AND OTHER COMPOUNDS” (BASF SE, priority 2017, published 2021)

What was measured:
nitrification [1] = experiment: Example 3: soil column trial (soil Limburgerhof) with ammonium sulfate, DMPP, DMPSA or DMPP+DMPSA; leaching at 5° C., incubation 10 d or 20 d at 15° C.; NH4-N/NO3-N, % inhibition of NO3-N formation (Böhland), Colby; conditions: 0.05% DMPP, 0.45% DMPSA
Source text: The effect on NH4^+ retention and NH4^+ to NO3^− ratios in the soil after fertilization of ammonium sulfate with the addition of DMPP, DMPSA or a combination of DMPP and DMPSA was investigated in column trials simulating climatic conditions of spring time in central Europe. Soil Limburgerhof (pH(CaCl2) 6.8, texture: 73% sand; 24% silt, 3% clay) was filled dry into a glass column with an inner width of 4 cm. At the bottom 0.4 g cotton wool was placed above which a frit (Co. Robu, pore size 1) was placed above which 100 g of 2 mm sieved soil Limburgerhof was layered. The soil height in the column was about 7 cm. Before fertilization the soil was brought to about 60% of its water holding capacity (WHC) be adding 14.4 mL of deionized water. Per column 10 mg NH4—N as ammonium sulfate was fertilized or not (control) together or not with 0.05% DMPP (DMPP obtained from BASF SE), 0.45% DMPSA (DMPSA used as free acid obtained from BASF SE) and 0.05% DMPP plus 0.45% DMPSA (% of nitrification inhibitor w/w of NH4—N). Every treatment was replicated three times.
After fertilization, 50 mL demineralized water was carefully and slowly placed on top of each column which equals about 31 mm precipitation. After 24 h the eluate was collected and by sucking off the soil to bring it back to about 60% of its WHC. All handlings including soil preparation, fertilization and the temperature of the water for both wetting the soil and the artificial precipitation up to the collection of the eluate 24 h after fertilization was performed at 5° C.
(§1) Thereafter, the columns were incubated for 10 d or 20 d at constantly 15° C. in an incubator. After 7 d and 14 d, water was added by weight where needed to bring the soils uniformly to 60% WHC. After 10 d or 20 d, the soil was removed from the columns and extracted with 1% (w/w) K2SO4 solution by shaking for 2 h at room temperature. The filtrated extract was then analyzed for NH4^+ and NO3 colorimetrical by an autoanalyzer.
(§2) To calculate the inhibition of nitrate formation by the nitrification inhibitors during the incubation, the above-mentioned Böhland equation was used. To examine synergistic effects of the combination of DMPP+DMPSA the formula by Colby (Colby, S.R., “Calculating synergistic and antagonistic responses of herbicide Combinations”, Weeds, 15, pp. 20-22, 1967) was used. To determine background levels of NH4+ to NO3−, every treatment was also extracted immediately after fertilization and after leaching prior to the further incubation at 15° C. for 10 d or 20 d.

nitrification [2] = experiment: Example 4: soil column trial (soil Limburgerhof), DMPSA and DMPP, other weight ratios; incubation 10 d at 15° C.; % inhibition of NO3-N formation (Böhland), Colby; conditions: 10 days of incubation at 15° C.
Source text: The effect on NH4+ retention and NH4+ to NO3− ratios in the soil after fertilization of ammonium sulfate with the addition of DMPP, DMPSA or a combination of DMPP and DMPSA was investigated in column trials simulating climatic conditions of spring time in central Europe. Soil Limburgerhof (pH(CaCl2) 6.8, texture: 73% sand; 24% silt, 3% clay) was filled dry into a glass column with an inner width of 4 cm. At the bottom 0.4 g cotton wool was placed above which a frit (Co. Robu, pore size 1) was placed above which 100 g of 2 mm sieved soil Limburgerhof was layered. The soil height in the column was about 7 cm. Before fertilization the soil was brought to about 60% of its water holding capacity (WHC) be adding 14.4 mL of deionized water. Per column 10 mg NH4—N as ammonium sulfate was fertilized or not (control) together or not with 0.005% or 0.015% DMPP (DMPP obtained from BASF SE), 0.45% DMPSA (DMPSA used as free acid obtained from BASF SE) and […] or 0.015% DMPP plus 0.45% DMPSA (% of nitrification inhibitor w/w of NH4-N). Every treatment was replicated three times. After fertilization, 50 mL demineralized water was carefully and slowly placed on top of each column which equals about 31 mm precipitation. After 24 h the eluate was collected and by sucking off the soil to bring it back to about 60% of its WHC. All handlings including soil preparation, fertilization and the temperature of the water for both wetting the soil and the artificial precipitation up to the collection of the eluate 24 h after fertilization was performed at 5° C.
as §1, with “d” for “d,”, “NH4+” for “NH4^+”, “NO3−” for “NO3”
as §2

[3] = 10 days of incubation at 15° C.
[4] = 20 days of incubation at 15° C.
[5] = 0.015% DMPP, alone or + 0.45% DMPSA

Cc1c[nH]nc1C.O=P(O)(O)O [DMPP, 3,4-dimethyl pyrazole phosphate and/or 4,5-dimethyl pyrazole phosphate]
During incubation: % inhibition of NO3—N formation by NI acc. to Böhland equation (1973) (MV) (nitrification [1]; [3]): 69.8%
Net NI effect % NH4 from fertilized NH4 (MV) (nitrification [1]; [3]): 41.02%
Ratio NH4—N/NO3—N (MV) (nitrification [1]; [3]): 2.86
Soil mg/100 g NH4—N (MV) (nitrification [1]; [3]): 6.58 mg/100 g
Soil mg/100 g NO3—N (MV) (nitrification [1]; [3]): 2.34 mg/100 g
During incubation: % inhibition of NO3—N formation by NI acc. to Böhland equation (1973) (MV) (nitrification [1]; [4]): 14.9%
Net NI effect % NH4 from fertilized NH4 (MV) (nitrification [1]; [4]): 6.67%
Ratio NH4—N/NO3—N (MV) (nitrification [1]; [4]): 0.08
Soil mg/100 g NH4—N (MV) (nitrification [1]; [4]): 0.68 mg/100 g
Soil mg/100 g NO3—N (MV) (nitrification [1]; [4]): 8.60 mg/100 g
During incubation: % inhibition of NO3—N formation by NI acc. to Böhland equation (1973) (MV) (nitrification [2]; 0.005% DMPP, 0.45% DMPSA): −4.6%
Net NI effect % NH4 from fertilized NH4 (MV) (nitrification [2]; 0.005% DMPP, 0.45% DMPSA): 6.22%
Ratio NH4—N/NO3—N (MV) (nitrification [2]; 0.005% DMPP, 0.45% DMPSA): 0.10
Soil mg/100 g NH4—N (MV) (nitrification [2]; 0.005% DMPP, 0.45% DMPSA): 0.65 mg/100 g
Soil mg/100 g NO3—N (MV) (nitrification [2]; 0.005% DMPP, 0.45% DMPSA): 6.94 mg/100 g
During incubation: % inhibition of NO3—N formation by NI acc. to Böhland equation (1973) (MV) (nitrification [2]; [5]): 15.7%
Net NI effect % NH4 from fertilized NH4 (MV) (nitrification [2]; [5]): 11.49%
Ratio NH4—N/NO3—N (MV) (nitrification [2]; [5]): 0.21
Soil mg/100 g NH4—N (MV) (nitrification [2]; [5]): 1.18 mg/100 g
Soil mg/100 g NO3—N (MV) (nitrification [2]; [5]): 5.59 mg/100 g
